Patent US5760092A, “Allocolchinones and uses thereof” (Brandeis University, priority 1996, dated 1998)
pIC50: −log10 of the molar value. “And” between values parts separate entries of the source, which are not always exact repeats. Equal entries are not always repeated. Where two headings read alike, the source gives them in different places.

Key:
[1] = tested on: HS 578T breast cancer cells; test: cells; conditions: Homo sapiens
[2] = tested on: SF-539 CNS cancer cells
[3] = tested on: A498 renal cancer cells; test: cells; conditions: Homo sapiens
[4] = tested on: SK-OV-3 ovarian cancer cells; test: cells; conditions: Homo sapiens
[5] = tested on: CAKI-1 renal cancer cells
[6] = tested on: SNB-19 CNS cancer cells
[7] = tested on: SNB-75 CNS cancer cells
[8] = tested on: HOP-92 non-small cell lung cancer cells
[9] = tested on: CAKI-1 renal cancer cells; test: cells; conditions: Homo sapiens
[10] = tested on: RXF-393 renal cancer cells; test: cells; conditions: Homo sapiens
[11] = tested on: HOP-62 non-small cell lung cancer cells; test: cells; conditions: Homo sapiens
[12] = tested on: tubulin; format: biochemical, calf
[13] = tested on: HS 578T breast cancer cells
[14] = tested on: SF-295 CNS cancer cells; test: cells; conditions: Homo sapiens
[15] = tested on: SK-OV-3 ovarian cancer cells; conditions: log10 conc -6.0; 1 µM
[16] = tested on: tubulin; test: Binding to tubulin
[17] = tested on: OVCAR-3 ovarian cancer cells
[18] = tested on: OVCAR-8 ovarian cancer cells
[19] = tested on: U251 CNS cancer cells
[20] = tested on: MCF7/ADR-RES breast cancer cells; test: cells; format: cell-based
[21] = tested on: HOP-92 non-small cell lung cancer cells; test: cells; conditions: Homo sapiens
[22] = tested on: MOLT-4 leukemia cells
[23] = tested on: HOP-62 non-small cell lung cancer cells
[24] = tested on: OVCAR-3 ovarian cancer cells; test: cells; conditions: Homo sapiens

For `COc1cc2c(c(OC)c1OC)-c1ccc(C(C)=O)cc1C(NC(C)=O)CC2` (stereo not drawn), the activity at 100 µM ([1]; read-out: Percent Growth, log10 conc -4.0) was 16%, the activity at 10 µM ([1]; read-out: Percent Growth, log10 conc -5.0) was 27% and the activity at 0.1 µM ([1]; read-out: Percent Growth, log10 conc -7.0) was 38%. The activity at 0.01 µM ([1]; read-out: Percent Growth, log10 conc -8.0) was 39%, the activity at 0.001 µM ([1]; read-out: Percent Growth, log10 conc -9.0) was 27% and the activity at 0.0001 µM ([1]; read-out: Percent Growth, log10 conc -10.0) was 103%. The “Percent Growth” value ([2]; log10 conc -4.0, 100 µM) was -27%, the “Percent Growth” value ([2]; log10 conc -5.0) was -31% and the “Percent Growth” value ([2]; log10 conc -6.0, 1 µM) was -24%. For the same compound, the “Percent Growth” value ([2]; log10 conc -7.0, 0.1 µM) was -24%, the “Percent Growth” value ([2]; log10 conc -8.0) was -16% and the “Percent Growth” value ([2]; log10 conc -9.0, 0.001 µM) was 19%. The “Percent Growth” value ([2]; log10 conc -10.0, 0.0001 µM) was 100%, the activity at 100 µM ([3]; A498, read-out: Percent Growth, log10 conc -4.0) was 1% and the activity at 10 µM ([3]; A498, read-out: Percent Growth, log10 conc -5.0) was 3%. It also gave an activity at 0.001 µM ([3]; A498, read-out: Percent Growth, log10 conc -9.0) of 72%, an activity at 0.0001 µM ([3]; A498, read-out: Percent Growth, log10 conc -10.0) of 77% and an activity at 100 µM ([4]; SK-OV-3, read-out: Percent Growth, log10 conc -4.0) of 9%. For the same compound, the activity at 10 µM ([4]; SK-OV-3, read-out: Percent Growth, log10 conc -5.0) was 15%, the activity at 1 µM ([4]; SK-OV-3, read-out: Percent Growth, log10 conc -6.0) was 14% and the activity at 0.1 µM ([4]; SK-OV-3, read-out: Percent Growth, log10 conc -7.0) was 19%. The activity at 0.01 µM ([4]; SK-OV-3, read-out: Percent Growth, log10 conc -8.0) was 12%, the activity at 0.001 µM ([4]; SK-OV-3, read-out: Percent Growth, log10 conc -9.0) was 44% and the activity at 0.0001 µM ([4]; SK-OV-3, read-out: Percent Growth, log10 conc -10.0) was 95%. For the same compound, the TGI [5] was over 100 µM, the “Percent Growth” value ([6]; log10 conc -4.0, 100 µM) was 6% and the “Percent Growth” value ([6]; log10 conc -5.0) was 7%. For the same compound, the “Percent Growth” value ([6]; log10 conc -6.0, 1 µM) was 36%, the “Percent Growth” value ([6]; log10 conc -8.0, 0.01 µM) was 25% and 16% and the “Percent Growth” value ([6]; log10 conc -9.0, 0.001 µM) was 63%. The “Percent Growth” value ([6]; log10 conc -10.0, 0.0001 µM) was 99%, the “Percent Growth” value ([7]; log10 conc -4.0, 100 µM) was 39% and the “Percent Growth” value ([7]; log10 conc -5.0) was 43%. For the same compound, the “Percent Growth” value ([7]; log10 conc -6.0, 1 µM) was 52% and 43%, the “Percent Growth” value ([7]; log10 conc -7.0, 0.1 µM) was 46% and 50% and the “Percent Growth” value ([7]; log10 conc -8.0, 0.01 µM) was 41% and 44%. For the same compound, the “Percent Growth” value ([7]; log10 conc -9.0, 0.001 µM) was 17%, the “Percent Growth” value ([7]; log10 conc -10.0, 0.0001 µM) was 96% and the “Percent Growth” value ([8]; log10 conc -6.0, 1 µM) was 11%. For the same compound, the “Percent Growth” value ([8]; log10 conc -7.0, 0.1 µM) was 24% and 45%, the “Percent Growth” value ([8]; log10 conc -8.0, 0.01 µM) was 45% and 66% and the GI50 ([9]; CAKI-1) was 0.0401 µM. The activity at 100 µM ([9]; CAKI-1, read-out: Percent Growth, log10 conc -4.0) was 37%, the activity at 10 µM ([9]; CAKI-1, read-out: Percent Growth, log10 conc -5.0) was 39% and the activity at 1 µM ([9]; CAKI-1, read-out: Percent Growth, log10 conc -6.0) was 36%. For the same compound, the activity at 0.1 µM ([9]; CAKI-1, read-out: Percent Growth, log10 conc -7.0) was 35%, the activity at 0.01 µM ([9]; CAKI-1, read-out: Percent Growth, log10 conc -8.0) was 73% and the CC50 ([10]; RXF 393, read-out: LC50) was over 1 µM. It also gave an activity at 1 µM ([10]; RXF 393, read-out: Percent Growth, log10 conc -6.0) of 61%, an activity at 0.1 µM ([10]; RXF 393, read-out: Percent Growth, log10 conc -7.0) of 55% and an activity at 0.01 µM ([10]; RXF 393, read-out: Percent Growth, log10 conc -8.0) of 35%. It also gave an activity at 0.001 µM ([10]; RXF 393, read-out: Percent Growth, log10 conc -9.0) of 42%, an activity at 0.0001 µM ([10]; RXF 393, read-out: Percent Growth, log10 conc -10.0) of 101% and a GI50 ([11]; HOP-62) of 0.00768 µM. For the same compound, the activity at 100 µM ([11]; HOP-62, read-out: Percent Growth, log10 conc -4.0) was 22%, the activity at 10 µM ([11]; HOP-62, read-out: Percent Growth, log10 conc -5.0) was 20% and the activity at 1 µM ([11]; HOP-62, read-out: Percent Growth, log10 conc -6.0) was 44%. The activity at 0.1 µM ([11]; HOP-62, read-out: Percent Growth, log10 conc -7.0) was 46%, the activity at 0.01 µM ([11]; HOP-62, read-out: Percent Growth, log10 conc -8.0) was 47% and the activity at 0.001 µM ([11]; HOP-62, read-out: Percent Growth, log10 conc -9.0) was 77%. The activity at 0.0001 µM ([11]; HOP-62, read-out: Percent Growth, log10 conc -10.0) was 101%, the “activity relative to colchicine (inhibition of microtubule assembly)” value ([12]; drug to tubulin molar concentration ratio of about 0.030) was “about 20%” and the “inhibition of microtubule formation compared with colchicine” value ([12]; in vitro) was “more active than colchicine”. For the same compound, the pIC50 ([12]; in vitro, read-out: LC50 (inhibition of microtubule assembly in vitro)) was 6.52, the plateau turbidity ([12]; increasing amounts of drug, tubulin 2.1×10^-5 M) was “decrease in plateau turbidity” and the “Percent Growth” value ([13]; log10 conc -6.0, 1 µM) was 25%. For the same compound, the “Percent Growth” value ([13]; log10 conc -8.0, 0.01 µM) was 24%, the activity at 100 µM ([14]; SF-295, read-out: Percent Growth, log10 conc -4.0) was -14% and the activity at 10 µM ([14]; SF-295, read-out: Percent Growth, log10 conc -5.0) was -10%. It also gave an activity at 0.01 µM ([14]; SF-295, read-out: Percent Growth, log10 conc -8.0) of 6%, an activity at 0.001 µM ([14]; SF-295, read-out: Percent Growth, log10 conc -9.0) of 16% and an activity at 0.0001 µM ([14]; SF-295, read-out: Percent Growth, log10 conc -10.0) of 104%. The “Percent Growth” value [15] was 10%, the binding to tubulin [16] was “reversible” and the TGI [17] was over 100 µM. For the same compound, the “Percent Growth” value ([17]; log10 conc -6.0, 1 µM) was 7%, the “Percent Growth” value ([17]; log10 conc -7.0, 0.1 µM) was 15% and the “Percent Growth” value ([17]; log10 conc -8.0) was 23%. For the same compound, the “Percent Growth” value ([18]; log10 conc -4.0, 100 µM) was -45%, the “Percent Growth” value ([18]; log10 conc -5.0) was -29% and the “Percent Growth” value ([18]; log10 conc -6.0, 1 µM) was 9%. The “Percent Growth” value ([18]; log10 conc -9.0, 0.001 µM) was 25%, the “Percent Growth” value ([18]; log10 conc -10.0, 0.0001 µM) was 96% and the “Percent Growth” value ([19]; log10 conc -4.0, 100 µM) was 4%. For the same compound, the “Percent Growth” value ([19]; log10 conc -5.0) was 3%, the “Percent Growth” value ([19]; log10 conc -9.0, 0.001 µM) was 23% and the “Percent Growth” value ([19]; log10 conc -10.0, 0.0001 µM) was 96%. It also gave a GI50 [20] of 0.023 µM, a GI50 ([20]; Homo sapiens, MCF7) of 0.0211 µM and an activity at 100 µM ([20]; Homo sapiens, MCF7, read-out: Percent Growth, log10 conc -4.0) of -1%. The activity at 10 µM ([20]; Homo sapiens, MCF7, read-out: Percent Growth, log10 conc -5.0) was -1%, the activity at 1 µM ([20]; Homo sapiens, MCF7, read-out: Percent Growth, log10 conc -6.0) was 37% and the activity at 0.01 µM ([20]; Homo sapiens, MCF7, read-out: Percent Growth, log10 conc -8.0) was 56%. It also gave an activity at 0.001 µM ([20]; Homo sapiens, MCF7, read-out: Percent Growth, log10 conc -9.0) of 73%, an activity at 0.0001 µM ([20]; Homo sapiens, MCF7, read-out: Percent Growth, log10 conc -10.0) of 91% and a GI50 ([21]; HOP-92) of 0.000618 µM. The activity at 100 µM ([21]; HOP-92, read-out: Percent Growth, log10 conc -4.0) was 57%, the activity at 10 µM ([21]; HOP-92, read-out: Percent Growth, log10 conc -5.0) was 53% and the activity at 0.001 µM ([21]; HOP-92, read-out: Percent Growth, log10 conc -9.0) was 36%. For the same compound, the activity at 0.0001 µM ([21]; HOP-92, read-out: Percent Growth, log10 conc -10.0) was 94%, the “Percent Growth” value ([22]; log10 conc -4.0, 100 µM) was -5% and the “Percent Growth” value ([22]; log10 conc -5.0) was 5%. The “Percent Growth” value ([22]; log10 conc -6.0, 1 µM) was 5%, the “Percent Growth” value ([22]; log10 conc -8.0) was 34% and the “Percent Growth” value ([22]; log10 conc -9.0, 0.001 µM) was 32%. For the same compound, the “Percent Growth” value ([22]; log10 conc -10.0, 0.0001 µM) was 106%, the GI50 [23] was under 0.01 µM and the “Percent Growth” value ([23]; log10 conc -6.0, 1 µM) was 31%. For the same compound, the “Percent Growth” value ([23]; log10 conc -7.0, 0.1 µM) was 29%, the “Percent Growth” value ([23]; log10 conc -8.0, 0.01 µM) was 45% and the activity at 100 µM ([24]; OVCAR-3, read-out: Percent Growth, log10 conc -4.0) was 5%. For the same compound, the activity at 10 µM ([24]; OVCAR-3, read-out: Percent Growth, log10 conc -5.0) was 5%, the activity at 0.001 µM ([24]; OVCAR-3, read-out: Percent Growth, log10 conc -9.0) was -11% and the activity at 0.0001 µM ([24]; OVCAR-3, read-out: Percent Growth, log10 conc -10.0) was 97%.
